These results are taken from patent publication US20180085374A1, “Use of Morpholino Compounds for the Treatment of Halitosis” (MERIAL INC., priority 2007, published 2018).

Experiment [1] relates to Volatile Sulphur Compounds (VSCs). As to the kind of experiment: Levels of VSCs following treatment with delmopinol. The format is in vivo.
Another experiment relates to oral bacteria. Particulars: delmopinol mouthwash; cited from earlier work.

In the case of `CCCC(CCC)CCCC1COCCN1CCO` (centres unmarked) [delmopinol, 3-(4-propyl-heptyl)-4-(2-hydroxyethyl)morpholine], the “levels of VSCs” value in experiment [1] was “decrease”. Also, in the experiment with oral bacteria, the “numbers or proportions of oral bacteria” value is on record as “does not significantly affect”.
